From PubChem BioAssay (NCI)
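Briefly, cells in 96-well plates were exposed to five compound concentrations for 48 h, and endpoints were estimated by linear interpolation. TGI is the concentration that stops growth completely.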

Key:
Test in all cases: growth of human tumour cells (NCI), 48 h
[1] = test system: UACC-257 melanoma
[2] = test system: LOX IMVI melanoma
[3] = test system: U251 CNS
[4] = test system: OVCAR-8 ovarian
[5] = test system: MDA-MB-435
[6] = test system: BT-549 breast
[7] = test system: A549 NSCLC
[8] = test system: NCI-H226 lung
[9] = test system: SW-620 colon

SMILES | TGI [1] [µM] | TGI [2] [µM] | TGI [3] [µM] | TGI [4] [µM] | TGI [5] [µM] | TGI [6] [µM] | TGI [7] [µM] | TGI [8] [µM] | TGI [9] [µM]
COc1ccc(N(C(=O)Nc2ccc(Cl)c(Cl)c2)C2c3cccn3C(=O)N2c2ccc(Cl)c(Cl)c2)cc1 (stereo not given) | > 100 | > 100 | > 100 | > 100 | > 100 | > 100 | > 100 | > 100 | > 100
CC(C)(C)c1cc(C(=O)/C=C/c2ccc3c(c2)OCO3)cc(C(C)(C)C)c1O | 22.1 | > 55.8 | 19.3 | > 100 | 7.04 | 27.2 | > 86.6 | > 80.6 | 35.8
CCOC(=O)C#Cc1ccccc1 | > 100 | 14.9 | 25.9 | > 100 | 45.6 | 79.5 | 58.3 | > 100 | 31.2
CCOC(=O)c1cn2c(n1)sc1cc(Cl)cc(Cl)c12 | > 100 | > 100 | > 100 | > 100 | > 100 | > 100 | > 100 | > 100 | > 100
Cn1c2ccccc2c(=O)c2c(O)cc3c(c21)C=CC1(CCCCC1)O3 | > 10 | > 10 | > 10 | > 10 | > 10 | > 10 | > 10 | > 10 | > 10
C=C1c2nc3ccccc3n2C=C(c2ccc(Cl)cc2)N1c1ccc(OC)cc1 | 30.5 | > 100 | 25.4 | 15.8 | 30.5 | 6.88 | 30.4 | 15.6 | > 100
O=C(N/N=C/c1ccc(Br)cc1)N/N=C/c1ccc(Br)cc1 | 40.2 | > 100 | 18.5 | 19.8 | 76 | 52.9 | > 100 | 22.9 | 30.7
CCOP(=O)(/C=C\n1ccc(N)nc1=O)OCC | > 100 | > 100 | > 100 | > 100 | > 100 | > 100 | > 100 | > 100 | > 100
S=c1cc(-c2ccc3c(c2)OCO3)s[nH]1 | > 100 | > 100 | > 100 | > 100 | > 100 | > 100 | > 100 | > 100 | > 100
Cc1ccc(/C=C2\Cc3c(C)cc(C)cc3C2=O)c(C(=O)O)c1 | > 100 | 48.9 | > 100 | > 100 | 88.1 | > 100 | > 100 | 71.4 | > 100
O=c1[nH]nc(Cc2ccccc2)n1/N=C/c1ccncc1 | > 100 | > 100 | > 100 | > 100 | > 100 | > 100 | > 100 | > 100 | > 100
CNC(=O)CCCNC(=O)CCCC(=O)N(C)C | > 100 | > 100 | > 100 | > 100 | > 100 | > 100 | > 100 | > 100 | > 100
CCCCn1c(-c2ccc([N+](=O)[O-])cc2)cs/c1=N/N=C1\C(=O)Nc2ccc(Br)cc21 | 47.2 | 39 | 22.9 | > 100 | 37.3 | 51.6 | 85.8 | 38.3 | > 100
COc1cc2c(cc1OC)-c1cc3ccccc3c(=O)n1CC2 | > 100 | 27.5 | 97.9 | > 100 | > 100 | > 100 | > 100 | > 100 | > 100
COc1ccc(COCC[C@H](C)OC2OC(CO[Si](C)(C)C(C)(C)C)C(OC(=O)CCCN=[N+]=[N-])C(OC(=O)CCCN=[N+]=[N-])C2OC(=O)CCCN=[N+]=[N-])cc1 (stereo not given in full) | > 100 | > 100 | > 100 | 75.8 | > 100 | 68.9 | > 100 | 89.2 | > 100
CC12CCCC3(CC(=O)C(C)(C)C3C(=O)C1)C2 (stereo not given) | > 100 | > 100 | > 100 | > 100 | > 100 | > 100 | > 100 | > 100 | > 100
C\C(=N/N=C1/C(=C\N(C)C)C(=O)NC(=O)N1C)c1ccc(Cl)cc1 | > 100 | > 100 | > 100 | > 100 | > 100 | > 100 | > 100 | > 100 | > 100
O=c1[nH]c(Nc2cccc(CO)c2)nc2nc[nH]c12 | > 100 | > 100 | > 100 | > 100 | > 100 | > 100 | > 100 | > 100 | > 100
COc1cc2ccc1OCc1cccc(n1)COc1ccc(cc1OC)C=Nc1ccc(cc1)N=C2 | > 100 | > 100 | > 100 | > 100 | > 100 | > 100 | > 100 | > 100 | > 100
COC1CC(OC2CCC3(C)C(=CCC4C3C(OC(C)=O)C(OC(=O)CC(C)C)C3(C)C(C(C)=O)CCC43O)C2)OC(C)C1OC1CC(OC)C(OC2CC(OC)C(OC3OC(C)C(OC4OC(CO)C(O)C(O)C4O)C(OC)C3O)C(C)O2)C(C)O1 (stereo not given) | > 75 | > 75 | > 75 | > 75 | > 75 | > 75 | > 75 | > 75 | > 75
